Patent publication US10315992B2, “Tetracyline compounds” (Tetraphase Pharmaceuticals, Inc., priority 2012, dated 2019)
Converted amounts (≈) assume the structure as drawn. Where two headings read alike, the source gives them in different places.

Legend:
[1] = tested on: Staphylococcus aureus SA101 (ATCC 29213, MSSA); test: MIC assay, SA101; type: cell-based
[2] = tested on: Staphylococcus aureus SA191 (HA-MRSA, tetracycline-resistant); test: MIC assay, SA191; type: cell-based
[3] = tested on: Staphylococcus aureus SA158 (tetracycline-resistant tet(K)); test: MIC assay, SA158; type: cell-based
[4] = tested on: Staphylococcus epidermidis SE164 (ATCC 12228); test: MIC assay, SE164; type: cell-based; settings: ATCC12228, read-out: MIC SE 164 12228
[5] = tested on: Streptococcus pneumoniae SP160 (tet(M)); test: MIC assay, SP160; type: cell-based
[6] = tested on: Streptococcus pyogenes SP312 (2009 clinical isolate, tet(M)); test: MIC assay, SP312; type: cell-based
[7] = tested on: Escherichia coli EC107 (ATCC 25922); test: MIC assay, EC107; type: cell-based
[8] = tested on: Proteus mirabilis PM112 (ATCC 35659); test: MIC assay, PM112; type: cell-based
[9] = tested on: Pseudomonas aeruginosa PA556 (multiple-Mex efflux pump knockout strain); test: microbe, parasite or virus in culture; type: cell-based
[10] = tested on: Pseudomonas aeruginosa PA1145 (strain used in murine pneumonia model); test: MIC assay, PA1145; type: cell-based
[11] = tested on: Stenotrophomonas maltophilia SM256 (cystic fibrosis isolate, MDR); test: MIC assay, SM256; type: cell-based
[12] = tested on: Klebsiella pneumoniae KP153 (tet(A), MDR, ESBL+)
[13] = tested on: Klebsiella pneumoniae KP109 (ATCC 13883); test: MIC assay, KP109; settings: K. pneumoniae ATCC 13883; Table 4
[14] = tested on: PA 689; test: MIC assay, PA689; settings: Pseudomonas aeruginosa, read-out: MIC PA 689
Protocol: Minimum Inhibitory Concentration (MIC) Assay
MICs were determined according to the Clinical and Laboratory Standards Institute (CLSI) guidances (e.g., CLSI. Performance standards for antimicrobial susceptibility testing; nineteenth information supplement. CLSI document M100-S19, CLSI, 940 West Valley Road, Suite 1400, Wayne, Pa. 19087-1898, USA, 2009). Briefly, frozen bacterial strains were thawed and subcultured onto Mueller Hinton Broth (MHB) or other appropriate media (Streptococcus requires blood and Haemophilus requires hemin and NAD). Following incubation overnight, the strains were subcultured onto Mueller Hinton Agar and again incubated overnight. […] Isolated colonies were selected to prepare a starting inoculum equivalent to a 0.5 McFarland standard. […] Test compounds were prepared by dilution in sterile water to a final concentration of 5.128 mg/mL. Antibiotics (stored frozen, thawed and used within 3 hours of thawing) and compounds were further diluted to the desired working concentrations.
The assays were run as follows. Fifty μL of MHB was added to wells 2-12 of a 96-well plate. One hundred μL of appropriately diluted antibiotics was added to well 1. Fifty μL of antibiotics was removed from well 1 and added to well 2 and the contents of well 2 mixed by pipetting up and down five times. Fifty μL of the mixture in well 2 was removed and added to well 3 and mixed as above. Serial dilutions were continued in the same manner through well 12. Fifty μL was removed from well 12 so that all contained 50 μL. Fifty μL of the working inoculum was then added to all test wells. A growth control well was prepared by adding 50 μL of working inoculum and 50 μL of MHB to an empty well. The plates were then incubated at 37° C. overnight, removed from the incubator and each well was read on a plate reading mirror. The lowest concentration (MIC) of test compound that inhibited the growth of the bacteria was recorded.

[15] = tested on: Burkholderia cenocepacia BC240 (cystic fibrosis isolate, MDR); test: MIC assay, BC240; type: cell-based; settings: Burkholderia cenocepacia, control compounds
[16] = tested on: Klebsiella pneumoniae KP109 (ATCC 13883)

CN(C)[C@@H]1C(O)=C(C(N)=O)C(=O)[C@@]2(O)C(O)=C3C(=O)c4c(O)cccc4C[C@H]3C[C@@H]12 [Sancycline, sancycline]
MIC ([1]; read-out: MIC SA 101 292 13, S. aureus ATCC 29213, MSSA, Table 6): 0.5 µg/mL (≈ 1.21 µM)
MIC ([1]; read-out: MIC SA 101 29213, S. aureus ATCC 29213, MSSA, Table 4): 0.5 µg/mL (≈ 1.21 µM)
MIC ([1]; read-out: MIC SA 101 29213, S. aureus ATCC 29213, MSSA, Table 5): 0.5 µg/mL (≈ 1.21 µM)
MIC ([1]; read-out: MIC SA 101 29213, S. aureus ATCC 29213, MSSA, Table 7): 0.5 µg/mL (≈ 1.21 µM)
MIC ([1]; read-out: MIC SA 101 29213, control compounds): 0.5 µg/mL (≈ 1.21 µM)
MIC ([1]; read-out: MIC SA 101 29213, control compounds, numeric): 0.5 µg/mL (≈ 1.21 µM)
MIC ([2]; MRSA, read-out: MIC SA 191): 8 µg/mL (≈ 19.3 µM)
MIC ([3]; read-out: MIC SA 158 tetK, S. aureus tet(K), Table 4): 4 µg/mL (≈ 9.65 µM)
MIC ([3]; read-out: MIC SA 158 tetK, S. aureus tet(K), Table 5): 4 µg/mL (≈ 9.65 µM)
MIC ([3]; read-out: MIC SA 158 tetK, S. aureus tet(K), Table 6): 4 µg/mL (≈ 9.65 µM)
MIC ([3]; read-out: MIC SA 158 tetK, S. aureus tet(K), Table 7): 4 µg/mL (≈ 9.65 µM)
MIC ([3]; read-out: MIC SA 158 tetK, control compounds): 4 µg/mL (≈ 9.65 µM)
MIC ([3]; read-out: MIC SA 158 tetK, control compounds, numeric): 4 µg/mL (≈ 9.65 µM)
MIC [4]: 4 µg/mL (≈ 9.65 µM)
MIC ([5]; read-out: MIC SP 160 tet M, S. pneumoniae tet(M), Table 6): 8 µg/mL (≈ 19.3 µM)
MIC ([5]; read-out: MIC SP 160 tetM, S. pneumoniae tet(M), Table 4): 8 µg/mL (≈ 19.3 µM)
MIC ([5]; read-out: MIC SP 160 tetM, S. pneumoniae tet(M), Table 5): 8 µg/mL (≈ 19.3 µM)
MIC ([5]; read-out: MIC SP 160 tetM, S. pneumoniae tet(M), Table 7): 8 µg/mL (≈ 19.3 µM)
MIC ([5]; read-out: MIC SP 160 tetM, control compounds): 8 µg/mL (≈ 19.3 µM)
MIC ([5]; read-out: MIC SP 160 tetM, control compounds, numeric): 8 µg/mL (≈ 19.3 µM)
MIC ([6]; read-out: MIC SP 312): 4 µg/mL (≈ 9.65 µM)
MIC ([6]; read-out: MIC SP 312 tet M): 4 µg/mL (≈ 9.65 µM)
MIC ([7]; ATCC25922, read-out: MIC EC 07 25922, E. coli ATCC 25922, Table 7): 8 µg/mL (≈ 19.3 µM)
MIC ([7]; ATCC25922, read-out: MIC EC 107 259 22, E. coli ATCC 25922, Table 6): 8 µg/mL (≈ 19.3 µM)
MIC ([7]; ATCC25922, read-out: MIC EC 107 25922, E. coli ATCC 25922, Table 4): 8 µg/mL (≈ 19.3 µM)
MIC ([7]; ATCC25922, read-out: MIC EC 107 25922, E. coli ATCC 25922, Table 5): 8 µg/mL (≈ 19.3 µM)
MIC ([7]; ATCC25922, read-out: MIC EC 107 25922, control compounds): 8 µg/mL (≈ 19.3 µM)
MIC ([7]; ATCC25922, read-out: MIC EC 107 25922, control compounds, numeric): 8 µg/mL (≈ 19.3 µM)
MIC ([8]; ATCC35659, read-out: MIC PM 112 35659): 4 µg/mL (≈ 9.65 µM)
MIC [9]: 1 µg/mL (≈ 2.41 µM)
MIC ([9]; read-out: MIC PA 556): 1 µg/mL (≈ 2.41 µM)
MIC [10]: 33 µg/mL (≈ 79.6 µM)
MIC ([10]; read-out: MIC PA 1145): 32 µg/mL (≈ 77.2 µM)
MIC [11]: 1 µg/mL (≈ 2.41 µM)
MIC ([11]; read-out: MIC SM 256): 1 µg/mL (≈ 2.41 µM)
MIC KP 153 tetA ([12]; K. pneumoniae tet(A), MDR, ESBL+, Table 4): 32 µg/mL (≈ 77.2 µM)
MIC KP 153 tetA ([12]; K. pneumoniae tet(A), MDR, ESBL+, Table 5): 32 µg/mL (≈ 77.2 µM)
MIC KP 109 13883 [13]: 8 µg/mL (≈ 19.3 µM)
MIC [14]: 16 µg/mL (≈ 38.6 µM)

CN(C)c1ccc(O)c2c1C[C@H]1C[C@H]3[C@H](N(C)C)C(O)=C(C(N)=O)C(=O)[C@@]3(O)C(O)=C1C2=O [Minocycline, minocycline]
MIC ([1]; S. aureus ATCC 29213, MSSA, Table 4, read-out: MIC SA 101 29213): 0.063 µg/mL (≈ 0.138 µM)
MIC ([1]; S. aureus ATCC 29213, MSSA, Table 5, read-out: MIC SA 101 29213): 0.0625 µg/mL (≈ 0.137 µM)
MIC ([1]; S. aureus ATCC 29213, MSSA, Table 6, read-out: MIC SA 101 292 13): 0.063 µg/mL (≈ 0.138 µM)
MIC ([1]; S. aureus ATCC 29213, MSSA, Table 7, read-out: MIC SA 101 29213): 0.06 µg/mL (≈ 0.131 µM)
MIC ([1]; control compounds, numeric, read-out: MIC SA 101 29213): 0.06 µg/mL (≈ 0.131 µM)
MIC ([1]; control compounds, read-out: MIC SA 101 29213): 0.06 µg/mL (≈ 0.131 µM)
MIC ([2]; S. aureus HA-MRSA, tetracycline-resistant, Table 5, read-out: MIC SA 191): 8 µg/mL (≈ 17.5 µM)
MIC ([3]; S. aureus tet(K), Table 4, read-out: MIC SA 158 tetK): 0.031 µg/mL (≈ 0.0678 µM)
MIC ([3]; S. aureus tet(K), Table 5, read-out: MIC SA 158 tetK): 0.03 µg/mL (≈ 0.0656 µM)
MIC ([3]; S. aureus tet(K), Table 6, read-out: MIC SA 158 tetK): 0.03 µg/mL (≈ 0.0656 µM)
MIC ([3]; S. aureus tet(K), Table 7, read-out: MIC SA 158 tetK): 0.03 µg/mL (≈ 0.0656 µM)
MIC ([3]; control compounds, numeric, read-out: MIC SA 158 tetK): 0.03 µg/mL (≈ 0.0656 µM)
MIC ([3]; control compounds, read-out: MIC SA 158 tetK): 0.03 µg/mL (≈ 0.0656 µM)
MIC ([5]; S. pneumoniae tet(M), Table 6, read-out: MIC SP 160 tet M): 2 µg/mL (≈ 4.37 µM)
MIC ([5]; control compounds, numeric, read-out: MIC SP 160 tetM): 2 µg/mL (≈ 4.37 µM)
MIC ([6]; S. pyogenes tet(M), Table 5, read-out: MIC SP 312): 16 µg/mL (≈ 35 µM)
MIC ([6]; S. pyogenes tet(M), Table 6, read-out: MIC SP 312 tet M): 16 µg/mL (≈ 35 µM)
MIC ([7]; ATCC25922, E. coli ATCC 25922, Table 6, read-out: MIC EC 107 259 22): 0.5 µg/mL (≈ 1.09 µM)
MIC ([7]; ATCC25922, E. coli ATCC 25922, Table 7, read-out: MIC EC 07 25922): 0.5 µg/mL (≈ 1.09 µM)
MIC ([7]; ATCC25922, control compounds, numeric, read-out: MIC EC 107 25922): 0.5 µg/mL (≈ 1.09 µM)
MIC ([8]; ATCC35659, P. mirabilis ATCC 35659, Table 5, read-out: MIC PM 112 35659): 8 µg/mL (≈ 17.5 µM)
MIC ([10]; control compounds, c6, strain PA1145 inferred, read-out: MIC): 33 µg/mL (≈ 72.1 µM)
MIC ([10]; control compounds, numeric, read-out: MIC PA 1145): 32 µg/mL (≈ 69.9 µM)
MIC ([11]; control compounds, c9, strain SM256 inferred, read-out: MIC): 0.5 µg/mL (≈ 1.09 µM)
MIC ([11]; control compounds, numeric, read-out: MIC SM 256): 0.5 µg/mL (≈ 1.09 µM)
MIC ([15]; c10, strain BC240 inferred, read-out: MIC): 8 µg/mL (≈ 17.5 µM)
MIC ([15]; numeric, read-out: MIC BC 240): 8 µg/mL (≈ 17.5 µM)
MIC KP 109 13883 [16]: 1 µg/mL (≈ 2.19 µM)
MIC KP 153 tetA [12]: 8 µg/mL (≈ 17.5 µM)
MIC [14]: 8 µg/mL (≈ 17.5 µM)
